Tested on: adipocytes isolated from normal rat
Assay: Lipolysis assay in isolated adipocytes (isoprenaline-induced)
Type: cell-based
Settings: 30 μM, FIG. 1
Procedure: Animals are killed by cervical dislocation and epididymal fat pads are removed and digested in collagenase buffer at 37° C./120 rpm for approximately 50 minutes.
After the pre-treatment, Isoprenaline (1 μM) is added to the adipocytes followed by 30 min incubation at 37° C./150 rpm. The reactions are put on ice and the buffer is assayed spectrophotometrically for the production of NADH^+ from glycerol breakdown in reactions catalyzed by glycerol kinase and glycero 1-3-phosphate dehydrogenase and/or Non Esterified Fatty Acid (NEFA). Each data point is investigated in triplicates in two independent experiments.

With Cc1ccc(-c2ccc(C(=O)N3[C@@H](c4ccccc4Cl)CC[C@H]3C(=O)O)cc2)cc1 [Compound 5] the “inhibition of isoprenaline-induced lipolysis” value was “inhibit isoprenaline-induced lipolysis”.

Source: US11072582B2 (Epics Therapeutics, priority 2009, dated 2021)
